Data published in patent publication US9433572B2, “Pomegranate based skin protectant and topical application” (POM Wonderful, LLC, priority 2008, dated 2016).

Tested on: lipid peroxyl radicals
Assay: In vivo bleaching of beta-carotene applied to the skin under UVA (lipid peroxyl radical scavenging)
Details: human forearm skin, 2 mg/cm^2, UVA
Procedure: The protective effect of pomegranate-derived skin cream from the Example 4 was determined by assessing lipid peroxyl free radical scavenging capacity on the skin. Free radicals have been implicated in many of undesirable aspects of skin aging whether due to intrinsic cause or to exposure to UV radiation. Carotenoids like beta-carotene are efficient antioxidants scavenging singlet molecular oxygen and peroxyl radicals generated in during photooxidation. The bleaching of carotenoids has been used to evaluate the auto-oxidation activity of natural products. This technique can be used to evaluate, in vivo in non-invasive way, the ability of skin cream products to scavenge lipid peroxyl radicals. Basically, the method includes measuring the bleaching of beta-carotene applied to the skin when irradiated by UVA. […] An individual skin type is determined by an Individual Topology Angle (ITA), which can be found by using the following formula: […]*)×180/3.1415. Dr. Scholl's® Round Adhesive callus pad (Schering-Plough, Kenilworth, N.J.) were placed on the volar surface of the designated forearm (pre-cleaned with alcohol) of subjects. […] A baseline chromameter reading is taken after all of the callus pads have been applied. 2 mg/cm^2 of test skin cream and the positive control are applied in duplicate to each of the 2 sites. This is accomplished by means of a pre-calibrated syringe or by weighing the appropriate test material amount in a weigh boat. The test product and positive control are allowed to set on the forearm at ambient temperature for 15 minutes. The chromameter is used to measure the b* parameter of the coloration of the treated skin. Measurements are taken on the treated and untreated sites. The beta-carotene solution is then applied by means of a finger cot to obtain a uniform, homgeous orange color on all sites (pre-treated and non-treated), excluding the two control sites. The chromameter is used to measure the b* component of each site, post-application of the beta-carotene. […] The total exposure to UVA radiation is 6.0 J/cm^2. […]

CC1=C(/C=C/C(C)=C/C=C/C(C)=C/C=C/C=C(C)/C=C/C=C(C)/C=C/C2=C(C)CCCC2(C)C)C(C)(C)CCC1 [®-carotene, beta-carotene]
Mean of Color Index (at 10 minutes): 42%
Mean of Color Index (at 30 minutes): 16%
Mean of Color Index (at 60 minutes): 0%
